Data set [1] concerns ICAM-1. Briefly: ELISA of ICAM-1 cell surface expression in oligonucleotide-pretreated, cytokine-stimulated HUVEC. Conditions: HUVEC, interleukin-1β; concentration not given. It counts as cell-based, human.
Data set [2] concerns adherence of HL-60 cells to human umbilical vein endothelial cells. The experiment in a line: Cell adherence assay: DMSO differentiated HL-60 cells to TNF treated HUVEC. It is filed as cell-based. Conditions: TNF-α stimulated HUVEC, Example 11; control 19%. On the procedure: Target cells are grown as a monolayer in a multiwell plate, treated with oligonucleotide followed by cytokine. The adhering cells are then added to the monolayer cells and incubated for 30 to 60 minutes at 37° C. and washed to remove nonadhering cells. Cells adhering to the monolayer may be determined either by directly counting the adhering cells or prelabeling the cells with a radioisotope such as ^51Cr and quantitating the radioactivity associated with the monolayer as described. Dustin and Springer, J. Cell Biol. 1988, 107, 321-331. Antisense oligonucleotides may target either ICAM-1, VCAM-1 or ELAM-1 in the assay.
An example of the effects of antisense oligonucleotides targeting ICAM-1 mRNA on the adherence of DMSO differentiated HL-60 cells to tumor necrosis factor treated human umbilical vein endothelial cells is shown in FIG. 7. Human umbilical vein endothelial cells were grown to 80% confluence in 12 well plates. The cells were treated with 2 μM oligonucleotide diluted in Opti-MEM containing 8 μM DOTMA for 4 hours at 37° C. The medium was removed and replaced with fresh endothelial cell growth medium (EGM-UV) containing 2 μM of the indicated oligonucleotide and incubated 4 hours at 37° C. Tumor necrosis factor, 1 ng/ml, was added to cells as indicated and cells incubated for an additional 19 hours. The cells were washed once with EGM-UV and 1.6×10^6 HL-60 cells differentiated for 4 days with 1.3% DMSO added. The cells were allowed to attach for 1 hour at 37° C. and gently washed 4 times with Dulbecco's phosphate-buffered saline (D-PBS) warmed to 37° C. Adherent cells were detached from the monolayer by addition of 0.25 ml of cold (4EC) phosphate-buffered saline containing 5 mM EDTA and incubated on ice for 5 minutes. The number of cells removed by treatment with EDTA was determined by counting with a hemocytometer. Endothelial cells detached from the monolayer by EDTA treatment could easily be distinguished from HL-60 cells by morphological differences. In the absence of tumor necrosis factor, 3% of the HL-60 cells bound to the endothelial cells. Treatment of the endothelial cell monolayer with 1 ng/ml tumor necrosis factor increased the number of adhering cells to 59% of total cells added (FIG. 7).
Human umbilical vein endothelial (HUVEC) cells were grown and treated with oligonucleotides as in Example 4. Cells were treated with either ISIS 1939, ISIS 1940, or the control oligonucleotide ISIS 1821 for 4 hours, then stimulated with TNF-α for 20 hours. Basal HUVEC minimally bound HL-60 cells, while TNF-stimulated HUVEC bound 19% of the total cells added. Pretreatment of the HUVEC monolayer with 0.3 ìM ISIS 1939 reduced the adherence of HL-60 cells to basal levels, as shown in FIG. 11.

The test system of data set [3] is ICAM-1. The experiment in a line: ELISA screening for ICAM-1 expression in interleukin-1β-stimulated cells (HUVEC and A549). It is filed as cell-based, human. Conditions: interleukin-1β-stimulated cells, two cell lines (HUVEC, A549).
The test system of data set [4] is complementary DNA sequences (ICAM-1 target sites). The experiment in a line: Tm of oligonucleotide hybridized to complementary DNA. It is filed as binding, human. Conditions: 4 μM each strand, 100 mM Na+, 10 mM phosphate, 0.1 mM EDTA, pH 7.0; phosphorothioate vs complementary phosphodiester DNA. From the text:
The antisense oligonucleotides (synthesized as phosphorothioates) were hybridized to their complementary DNA sequences (synthesized as phosphodiesters). […] Tm's and free energies of duplex formation were obtained from fits of data to a two-state model with linear sloping baselines ([…]. and D. H. […] Results are averages of at least three experiments.

The subject of data set [5] is ICAM-1. Briefly: Immunoprecipitation of 35S-labelled ICAM-1 from A549 cells. It counts as cell-based, human. Conditions: 1 μM oligonucleotide, interleukin-1β. On the procedure: The specificity of the antisense oligonucleotides ISIS 1570 and ISIS 1939 for ICAM-1 was evaluated by immunoprecipitation of ^35S-labelled proteins. A549 cells were grown to confluence in 25 cm^2 tissue culture flasks and treated with antisense oligonucleotides as described in Example 4. The cells were stimulated with interleukin-1β for 14 hours, washed with methionine-free DMEM plus 10% dialyzed fetal calf serum, and incubated for 1 hour in methionine-free medium containing 10% dialyzed fetal calf serum, 1 μM oligonucleotide and interleukin-1β as indicated. ^35S-Methionine/cysteine mixture (Tran^35S-label, purchased from ICN, Costa Mesa, Calif.) was added to the cells to an activity of 100 μCi/ml and the cells were incubated an additional 2 hours. Cellular proteins were extracted by incubation with 50 mM Tris-HCl pH 8.0, 150 mM NaCl, 1.0% NP-40, 0.5% deoxycholate and 2 mM EDTA (0.5 ml per well) at 4° C. for 30 minutes. The extracts were clarified by centrifugation at 18,000×g for 20 minutes. The supernatants were preadsorbed with 200 μl protein G-Sepharose beads (Bethesda Research Labs, Bethesda Md.) for 2 hours at 4° C., divided equally and incubated with either 5 μg ICAM-1 monoclonal antibody (purchased from AMAC Inc., Westbrook Me.) or HLA-A, B antibody (W6/32, produced by murine hybridoma cells obtained from the American Type Culture Collection, Bethesda, Md.) for 15 hours at 4° C. Immune complexes were trapped by incubation with 200 μl of a 50% suspension of protein G-Sepharose (v/v) for 2 hours at 4° C., washed 5 times with lysis buffer and resolved on an SDS-polyacrylamide gel. Proteins were detected by autoradiography.

The test system of data set [6] is corneal allograft rejection. Briefly: Rat corneal allograft rejection (ACI donor to Lewis recipient). It counts as in vivo.

Strand notation (5' to 3'): a small letter for the sugar, then the base; units joined by * are phosphorothioate-linked, units joined directly phosphodiester-linked; [ ] holds rarer units or linkages, { } end groups; capitals alone tell only the bases. d = 2'-deoxy (DNA) Where only a bound is given, the exact number is not on record here.

We go through 3 substances from patent US6849612B2, “Oligonucleotide modulation of cell adhesion” (ISIS Pharmaceuticals, Inc., priority 1993, dated 2005).

Broadly, the Tm is the temperature at the midpoint of the melting transition.

For the substance “ISIS 1558: P=O oligonucleotide, human ICAM-1 AUG Codon (64-81), SEQ ID NO 1, TGGGAGCCATAGCGAGGC (unmodified DNA)”, in the data set with ICAM-1 [1], the “inhibition of ICAM-1 expression” value is recorded as “did not inhibit expression of ICAM-1”.

As to “ISIS 1940: P=S, human ICAM-1 3′-Untranslated (2975-2994), polyadenylation signal, SEQ ID NO 16, TTGAGAAAGCTTTATTAACT (antisense dT*dT*dG*dA*dG*dA*dA*dA*dG*dC*dT*dT*dT*dA*dT*dT*dA*dA*dC*dT)”, in data set [2], the “percentage of HL-60 cells adhering” value was determined as 9%. Further, in the data set with ICAM-1 [3], the “inhibition of ICAM-1 expression, relative activity in words” value is “did not inhibit ICAM-1 expression”. Also, the Tm in data set [4] was less than 50 °C. The “ICAM-1 synthesis” value with ICAM-1 [5] is reported as “did not significantly reduce ICAM-1 synthesis”.

Turning to “ISIS 9125: rat ICAM-1 antisense, AGGGCCACTGCTCGTCCACA, all 2′-deoxyphosphorothioate (SEQ ID NO: 86) (antisense dA*dG*dG*dG*dC*dC*dA*dC*dT*dG*dC*dT*dC*dG*dT*dC*dC*dA*dC*dA)”, in data set [6] (day 3 post-surgery), the “corneal edema vs OPTISOL alone group” value was “more corneal edema”; the “grading for cornea opacity and neovascularization, better than OPTISOL alone group” value worked out at 50%. In data set [6] (donor corneas incubated 24 hours in OPTISOL plus 400 μg/ml oligonucleotide, OPTISOL alone 4.80 days), the “average days to rejection” value is reported as 6.33 days. The “range of days to rejection” value in data set [6] (donor corneas incubated 24 hours in OPTISOL plus oligonucleotide) was 6 to 10 days. Moreover, the “increase of days to rejection” value in data set [6] (over the 24 hour OPTISOL incubation control group) turned out to be 25%.
